target: human plasma kallikrein (Homo sapiens, UniProt P03952); experiment: Kallikrein inhibition FLINT assay with quenched AMC peptide substrate Z-Gly-Pro-Arg-AMC (end point EP or kinetic KIN reads); assay type: biochemical; conditions: kinetic reads at 5 min intervals over 30 min; read-out: Kallikrein (KIN) IC50
Experimental: A fluorescence intensity (FLINT) based assay was used to monitor inhibition of human plasma kallikrein.
The Kallikrein FLINT assay was used with the following Z-Gly-Pro-Arg-AMC assay buffer: 50 mM Tris, pH 7.5, 100 mM NaCl, 5 mM CaCl2, 0.1 mg/mL BSA, 0.03% CHAPS. Assay buffer was prepared by mixing all ingredients fresh. 2× Z-Gly-Pro-Arg-AMC peptide substrate was prepared by diluting 10 mM stock into 1× assay buffer for a 100 μM working concentration (50 μM final concentration).
Test compound(s) were run in an 11-point, 3-fold serial dilution with a final top compound concentration of 1 μM. Final DMSO in assay was 2%. Plasma kallikrein was pre-incubated for 30-minute with compound and then 50 μM substrate was added to initiate the reaction. The assay was run with either end point (EP) reads at 30 min or kinetic (KIN) reads at 5 min intervals over 30 minutes.
Percent inhibition (IC50) curves were generated per compound tested, and data was analyzed using a 4-parameter logistic fit using GeneData Screener. The relative fluorescence unit (RFU) values were normalized to percent inhibition using the following equation: % inhibition=((HC−LC)−(compound−LC)/(HC−LC))*100
An 11-point dose response curve for the test compound(s) was generated using GENDATA to determine IC50 value based on the following equation: Y=Bottom+(Top−Bottom)/(1+10^((log IC50−X)*HillSlope))
Results listed in columns with […] designation were measured using endpoint reads where a single fluorescence reading was measured for each well at a 30 min timepoint.

human plasma kallikrein, sequence (P03952 391-638 limits assumed): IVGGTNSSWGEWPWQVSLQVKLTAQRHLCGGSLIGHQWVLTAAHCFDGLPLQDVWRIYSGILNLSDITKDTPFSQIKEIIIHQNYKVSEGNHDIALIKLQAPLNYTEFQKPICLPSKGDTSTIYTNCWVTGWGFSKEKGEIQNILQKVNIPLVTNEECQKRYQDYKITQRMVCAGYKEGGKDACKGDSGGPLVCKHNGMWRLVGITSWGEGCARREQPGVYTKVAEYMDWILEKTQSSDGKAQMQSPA
human plasma kallikrein, sequence (P03952 20-390 partner limits assumed): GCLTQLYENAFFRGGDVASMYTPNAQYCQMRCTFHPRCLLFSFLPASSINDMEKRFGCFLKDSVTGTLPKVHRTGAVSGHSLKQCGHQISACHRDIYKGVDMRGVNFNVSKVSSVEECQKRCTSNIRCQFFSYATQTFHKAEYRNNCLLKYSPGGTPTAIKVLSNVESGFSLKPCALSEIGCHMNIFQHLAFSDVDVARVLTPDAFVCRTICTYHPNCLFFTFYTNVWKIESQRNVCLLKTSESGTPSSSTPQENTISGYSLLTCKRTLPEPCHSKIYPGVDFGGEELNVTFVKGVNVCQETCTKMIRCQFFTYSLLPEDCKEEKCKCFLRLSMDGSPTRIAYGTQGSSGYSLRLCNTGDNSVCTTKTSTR

In order of falling IC50:
1. O=C(O)c1ccc(-c2cnn(C(CC3CC3C(=O)N3CCC(c4ccccc4)C3)c3ccc(-c4cc(Cl)ccc4-n4cnnn4)c[n+]3[O-])c2)cc1 (single isomer, unassigned) [Example P99]  2370 nM
2. Cc1cc(C(CC2CC2)n2cc(-c3cnn(C)c(=O)c3)cn2)[n+]([O-])cc1-c1c(-n2cnnn2)ccc(Cl)c1F (stereo not shown) [Example P130]  959 nM
3. COCCC(c1ccc(-c2c(-n3cnnn3)ccc(Cl)c2F)c[n+]1[O-])n1cc(C2CCN(C(=O)OC)CC2)cn1 (stereo not shown) [Example P166]  923 nM
4. [O-][n+]1cc(-c2c(-n3cnnn3)ccc(Cl)c2F)ccc1C(Cc1ccc(F)cc1)n1cc(-c2cnn(C(F)F)n2)cn1 (single isomer, unassigned) [Example P598]  862 nM
5. COC(=O)N1CCC(c2cnn(C(CC3CC3)c3ccc(-c4c(-n5cnnn5)ccc(Cl)c4F)c[n+]3[O-])c2)CC1 (stereo not shown) [Example P167]  826 nM
6. O=C(O)C1CCCN(C(=O)C2CC2CC(c2ccc(-c3c(-n4cnnn4)ccc(Cl)c3F)c[n+]2[O-])n2cc(-c3ccccc3)cn2)C1 (stereo not shown) [Example P223]  791 nM
7. CC(C)Oc1cc(C(CC2CC2)n2cc(-c3cnn(C)c(=O)c3)cn2)[n+]([O-])cc1-c1c(-n2cnnn2)ccc(Cl)c1F (stereo not shown) [Example P146]  571 nM
8. Cc1ncn(-c2cnn([C@H](CCOC(F)F)c3ccc(-c4c(-n5cc(C(F)(F)F)nn5)ccc(Cl)c4F)c[n+]3[O-])c2)n1 [Example P823]  566 nM
9. CN(CC(c1ccc(-c2c(-n3cnnn3)ccc(Cl)c2F)c[n+]1[O-])n1cc(-c2ccnc(C(F)(F)F)c2)cn1)C(=O)c1ccn(C)c(=O)c1 (single isomer, unassigned) [Example P434]  427 nM
10. Cn1ncnc1-c1cnn(C(CCOC(F)(F)F)c2ccc(-c3c(-n4cc(C(F)(F)F)nn4)ccc(Cl)c3F)c[n+]2[O-])c1 (stereo not shown) [Example P840]  ~423 nM
11. O=C(O)c1ccc(-c2cnn(C(CN3CCCC3=O)c3ccc(-c4c(C(F)F)ccc(Cl)c4F)c[n+]3[O-])c2)cc1 (single isomer, unassigned) [Example Q15]  382 nM
12. O=C(Nc1ccnc(F)c1-c1cnn(C(Cc2ccc(F)cc2)c2ccc(-c3c(-c4cnco4)ccc(Cl)c3F)c[n+]2[O-])c1)C1CC1 (stereo not shown) [Example P148]  350 nM
13. [O-][n+]1cc(-c2c(-n3cnnn3)ccc(Cl)c2F)ccc1C(CC1CCCO1)n1cc(-c2ccncc2)cn1 (stereo not shown) [Example P186]  320 nM
14. O=C(O)c1ccc(-c2cnn(C(CC3CC3)c3ccc(-c4c(C(F)F)ccc(Cl)c4F)c[n+]3[O-])c2)cc1 (stereo not shown) [Example Q16]  305 nM
15. Cc1nc(N)ccc1-c1cnn(C(CC2CC2)c2ccc(-c3c(-n4cnnn4)ccc(Cl)c3F)c[n+]2[O-])c1 (stereo not shown) [Example P183]  186 nM
16. COCc1ccnn1CC(c1ccc(-c2c(-n3cnnn3)ccc(Cl)c2F)c[n+]1[O-])n1cc(-c2ccnc(C(F)(F)F)c2)cn1 (stereo not shown) [Example P464]  185 nM
17. CN(CC(c1ccc(-c2c(-n3cnnn3)ccc(Cl)c2F)c[n+]1[O-])n1cc(-c2cc[n+]([O-])cc2)cn1)C(=O)c1ccccc1 (stereo not shown) [Example P344]  175 nM
18. CC(=O)N(C)CC(c1ccc(-c2c(-n3cnnn3)ccc(Cl)c2F)c[n+]1[O-])n1cc(-c2cc[n+]([O-])cc2)cn1 (stereo not shown) [Example P351]  131 nM
19. [2H]C([2H])([2H])Nc1ccc(-c2cnn(C(CCOC([2H])([2H])[2H])c3ccc(-c4c(-n5cnnn5)ccc(Cl)c4F)c[n+]3[O-])c2)cc1 (stereo not shown) [Example P278]  110 nM
20. CN1CCN(CC(c2ccc(-c3c(-n4cnnn4)ccc(Cl)c3F)c[n+]2[O-])n2cc(-c3ccnc(C(F)(F)F)c3)cn2)C1=O (single isomer, unassigned) [Example P433]  105 nM
21. N#Cc1cc(-c2cnn(C(Cn3ccccc3=O)c3ccc(-c4c(-n5cnnn5)ccc(Cl)c4F)c[n+]3[O-])c2)ccn1 (stereo not shown) [Example P459]  105 nM
22. Cn1nncc1-c1cnn([C@H](Cn2cc(F)cn2)c2ccc(-c3c(-n4cc(Cl)nn4)ccc(Cl)c3F)c[n+]2[O-])c1 [Example P537]  96.7 nM
23. [O-][n+]1cc(-c2c(-n3cnnn3)ccc(Cl)c2F)ccc1[C@H](Cn1ccc(OC(F)F)n1)n1cc(-c2ccnc(C(F)(F)F)c2)cn1 [Example P534]  93.1 nM
24. Cn1nncc1-c1cnn([C@H](CCOC(F)F)c2ccc(-c3c(N)ccc(Cl)c3F)c[n+]2[O-])c1 [Example Q44]  80.7 nM
25. [O-][n+]1cccc(-c2cnn(C(Cc3ccc(Cl)cc3)c3ccc(-c4cc(Cl)ccc4-n4cnnn4)c[n+]3[O-])c2)c1 (stereo not shown) [Example P151]  80.1 nM
26. COCC[C@H](c1ccc(-c2c(-n3cnnn3)ccc(Cl)c2F)c[n+]1[O-])n1cc(-c2ccnn2C(F)F)cn1 [Example P561]  78.3 nM
27. Nc1ccc(-c2cnn(C(Cn3cc(F)cn3)c3ccc(-c4c(-n5cnnn5)ccc(Cl)c4F)c[n+]3[O-])c2)c(F)n1 (single isomer, unassigned) [Example P417]  77.1 nM
28. COc1cc(C(CC2CC2)n2cc(-c3cnn(C(C)C)c(=O)c3)cn2)[n+]([O-])cc1-c1c(-n2cnnn2)ccc(Cl)c1F (stereo not shown) [Example P161]  76.7 nM
29. NC(=O)C1CC1CC(c1ccc(-c2c(-n3cnnn3)ccc(Cl)c2F)c[n+]1[O-])n1cc(-c2cc[n+]([O-])cc2)cn1 (single isomer, unassigned) [Example P283]  74.5 nM
30. NC(=O)C1CC1CC(c1ccc(-c2c(-n3cnnn3)ccc(Cl)c2F)c[n+]1[O-])n1cc(-c2ccc(N)nc2F)cn1 (racemic) [Example P201]  73.9 nM
31. O=C1c2ccccc2CN1CC(c1ccc(-c2cc(Cl)ccc2-n2cnnn2)c[n+]1[O-])n1cc(-c2ccncc2)cn1 (stereo not shown) [Example P293]  67.6 nM
32. COC(=O)N(C)CC(c1ccc(-c2c(-n3cnnn3)ccc(Cl)c2F)c[n+]1[O-])n1cc(-c2cc[n+]([O-])c(C(F)F)c2)cn1 (single isomer, unassigned) [Example P392]  64.1 nM
33. CN(CC(c1ccc(-c2c(-n3cnnn3)ccc(Cl)c2F)c[n+]1[O-])n1cc(-c2ccnc(C(F)(F)F)c2)cn1)C(=O)OCc1ccccc1 (single isomer, unassigned) [Example P375]  55.9 nM
34. CN(CC(c1ccc(-c2c(-n3cnnn3)ccc(Cl)c2F)c[n+]1[O-])n1cc(-c2ccnc(C(F)(F)F)c2)cn1)C(=O)c1ccccc1 (single isomer, unassigned) [Example P423]  43.9 nM
35. [O-][n+]1cc(-c2c(-n3cnnn3)ccc(Cl)c2F)ccc1[C@@H](Cc1ccc(F)cc1)n1cc(-c2cn(C(F)F)nn2)cn1 [Example P600]  43.8 nM
36. O=C1CCCN1CC(c1ccc(-c2c(-n3cnnn3)ccc(Cl)c2F)c[n+]1[O-])n1cc(-c2cc[n+]([O-])c(C(F)F)c2)cn1 (single isomer, unassigned) [Example P362]  38.3 nM
37. CC(C)c1cc(-c2cnn(C(Cn3cc(F)cn3)c3ccc(-c4c(-n5cnnn5)ccc(Cl)c4F)c[n+]3[O-])c2)ccn1 (stereo not shown) [Example P393]  36.6 nM
38. [O-][n+]1cc(-c2c(-n3cnnn3)ccc(Cl)c2F)ccc1C(Cn1cc(F)cn1)n1cc(-c2ccnc(C(F)(F)F)c2)cn1 (stereo not shown) [Example P333]  17.2 nM
39. [O-][n+]1cc(-c2c(-n3cnnn3)ccc(Cl)c2F)ccc1[C@@H](CCOC(F)F)n1cc(-c2cncn2C(F)F)cn1 [Example P771]  16.2 nM
40. COc1cc([C@@H](CC2CC2)n2cc(-c3ccc(C(=O)O)cc3)cn2)[n+]([O-])cc1-c1cc(Cl)ccc1C#N [Example Q51]  14.5 nM
41. [2H]C([2H])([2H])OCCC(c1ccc(-c2c(-n3cnnn3)ccc(Cl)c2F)c[n+]1[O-])n1cc(-c2ccc(NC(=O)OC)cc2)cn1 (stereo not shown) [Example P289]  13.8 nM
42. [O-][n+]1cc(-c2c(-n3cnnn3)ccc(Cl)c2F)ccc1C(Cn1cccn1)n1cc(-c2ccnc(F)c2)cn1 (stereo not shown) [Example P309]  9.2 nM
43. [O-][n+]1cc(-c2c(-n3cnnn3)ccc(Cl)c2F)ccc1[C@@H](Cc1ccc(C(F)(F)F)nc1)n1cc(-c2ccnn2C(F)F)cn1 [Example P777]  6.5 nM
44. NC(=O)c1ccc(-c2cnn(C(Cc3ccn(C(F)F)n3)c3ccc(-c4c(-n5cc(C(F)(F)F)nn5)ccc(Cl)c4F)c[n+]3[O-])c2)cc1F (single isomer, unassigned) [Example P906]  6.5 nM
45. [O-][n+]1cc(-c2c(-n3cnnn3)ccc(Cl)c2F)ccc1C(Cn1cc2c(n1)COCC2)n1cc(-c2ccnc(C(F)(F)F)c2)cn1 (stereo not shown) [Example P463]  6.4 nM
46. [2H]C([2H])([2H])n1nccc1-c1cnn([C@H](CCOC(F)F)c2ccc(-c3c(-n4cnnn4)ccc(Cl)c3F)c[n+]2[O-])c1 [Example P556]  2.4 nM
47. COc1cc(C(CC2CC2)n2cc(-c3ccnn3C)cn2)[n+]([O-])cc1-c1c(-n2cnnn2)ccc(Cl)c1F (single isomer, unassigned) [Example P491]  2.1 nM
48. Nc1ccc(-c2cnn(C(Cn3cccn3)c3ccc(-c4c(-n5cnnn5)ccc(Cl)c4F)c[n+]3[O-])c2)c(F)n1 (single isomer, unassigned) [Example P314]  1.4 nM
49. [O-][n+]1ccc(-c2cnn(C(Cc3ccc(F)cc3)c3ccc(-c4c(-n5cnnn5)ccc(Cl)c4F)c[n+]3[O-])c2)cc1 (single isomer, unassigned) [Example P238]  0.7 nM

— US11814364B2, “Pyridine N-oxide derivatives useful as factor XIa inhibitors” (Janssen Pharmaceutica NV, priority 2021, dated 2023)
